{"source": "patent US12473266B2", "about": "“Benzoxazole and related compounds useful as chaperone-mediated autophagy modulators” (Albert Einstein College of Medicine, priority 2018, dated 2025)", "key": {"[1]": {"tested_on": "CMA activity (KFERQ-Dendra reporter) in NIH 3T3 fibroblasts", "test": "Photoconvertible CMA reporter (KFERQ-Dendra) assay, fluorescent puncta per cell", "assay_type": "cell-based", "settings": "NIH 3T3 KFERQ-Dendra; for effect on the number of fluorescent puncta per cell: result in words", "experimental": "The photoactivatable CMA reporter assay was constructed by inserting a sequence of 21 amino acid of Ribonuclease A bearing the CMA-targeting motif in the N-terminus multicloning site of the photoactivatable protein mCherry1 or the photoswitchable protein Dendra 2.\nNIH 3T3 fibroblasts were stably transduced with a photoconvertible CMA reporter, KFERQ-Dendra and were photoswitched by exposure to a […] (constant current) LED (Norlux, 405 nm) for 10 minutes and at the desired times fixed in 3% formaldehyde. Test cells are exposed to the indicated concentrations of the compounds, e.g. for 12 hours or 24 hours. Cells are imaged, e.g., by using high content microscopy (Operetta, Perkin Elmer) or by capturing images with an Axiovert 200 fluorescence microscope (Zeiss) with apotome and equipped with a 63×1.4 NA oil objective lens and red (ex. 570/30 nm, em. 615/30 nm), cyan (ex. 365/50 nm and em. 530/45 nm) and green (ex. 475/40 nm and em. 535/45 nm) filter sets (Chroma). Images were acquired with a high-resolution CCD camera after optical sectioning through the apotome. CMA activity is measured as the average number of fluorescent puncta (CMA active lysosomes) per cell. Values are expressed relative to values in untreated cells that were assigned an arbitrary value of 1 and are mean of >2,500 cells counted per condition. The S.D. in all instances was <0.01% mean value."}, "in vitro": {"test": "in vitro", "experimental": "Microsome stability is determined in human, rat, and mouse, liver microsomes.\nCompound at 3 μM final concentration along with 0.5 mg/mL microsome protein and 1 mM NADPH was incubated for 0, 5, 15, 30 and 60 min. As a negative control, test compound is incubated with microsomes in the absence of NADPH. Samples are quenched with methanol and centrifuged for 25 min at 2500 rpm to precipitate proteins. Supernatants are analyzed (N=3) by LC-MS./MS. The ln peak area ratio (compound peak area/internal standard peak area) is plotted against time and the gradient of the line determined the elimination rate constant [k=(−1)(slope)].\nR^2 is the correlation coefficient of the linear regression for the determination of kinetic constant. T1/2 is the half life and CLint (mic) is the intrinsic clearance. CLint(liver)=CLint (mic)*mg microsomal protein/g liver weight*g liver weight/kg body weight. Liver weight/kg body weight is 20 g/kg for human."}}, "data": [{"molecule": "O=C(Nc1ccc(-c2ccc(-c3nc4cc(Cl)ccc4o3)cc2)cc1)C(F)(F)F", "note": "[Cmp. 14, N-(4′-(5-chlorobenzo[d]oxazol-2-yl)-[1,1′-biphenyl]-4-yl)-2,2,2-trifluoroacetamide]", "values": [{"measurement": "effect on the number of fluorescent puncta per cell", "setting": "[1]", "value": "positive effect"}]}, {"molecule": "O=C(Nc1ccc(-c2nc3ccc(Cl)cc3o2)cc1)c1ccc(F)cc1", "note": "[Cmp. 6, N-(4-(6-chlorobenzo[d]oxazol-2-yl)phenyl)-4-fluorobenzamide]", "values": [{"measurement": "effect on the number of fluorescent puncta per cell", "setting": "[1]", "value": "positive effect"}]}, {"molecule": "FC(F)(F)c1ccc(-c2ccc(-c3nc4ccc(Cl)cc4o3)cc2)cc1", "note": "[Cmp. 10, 6-chloro-2-(4′-trifluoromethyl-[1,1′-biphenyl]-4-yl)benzo[d]oxazole]", "values": [{"measurement": "effect on the number of fluorescent puncta per cell", "setting": "[1]", "value": "positive effect"}]}, {"molecule": "Clc1ccc2c(c1)OCC(c1ccc(-c3ccccc3)cc1)=N2", "note": "[Cmp. A]", "values": [{"measurement": "CLint(mic)", "setting": "in vitro; human, microsomes, 3 μM", "value": 36.6, "unit": "µL/min/mg"}, {"measurement": "Remaining (T = 60 min)", "setting": "in vitro; human, microsomes, 1 h, 3 μM", "value": 30.1, "unit": "%"}]}, {"molecule": "O=S(=O)(Nc1ccc(-c2nc3ccc(Cl)cc3o2)cc1)c1ccc(F)cc1", "note": "[Cmp. 7, N-(4-(6-chlorobenzo[d]oxazol-2-yl)phenyl)-4-fluorobenzenesulfonamide]", "values": [{"measurement": "effect on the number of fluorescent puncta per cell", "setting": "[1]", "value": "positive effect"}]}, {"molecule": "Clc1ccc2nc(-c3ccc(-c4ccccc4)cc3)oc2c1", "note": "[Cmp. 1, 2-([1,1′-biphenyl]-4-yl)-6-chlorobenzo[d]oxazole]", "values": [{"measurement": "CMA activity, average number of fluorescent puncta (CMA active lysosomes) per cell, relative to untreated cells (=1)", "setting": "[1]; column 'Time' = 5", "value": 2.43}, {"measurement": "CMA activity, average number of fluorescent puncta (CMA active lysosomes) per cell, relative to untreated cells (=1)", "setting": "[1]; column 'Time' = 10", "value": 2.16}, {"measurement": "CMA activity, average number of fluorescent puncta (CMA active lysosomes) per cell, relative to untreated cells (=1)", "setting": "[1]; column 'Time' = 20", "value": 2.98}, {"measurement": "CMA activity, average number of fluorescent puncta (CMA active lysosomes) per cell, relative to untreated cells (=1)", "setting": "[1]; column 'Time' = 30", "value": 3.22}, {"measurement": "CLint scaled at 3 μM", "setting": "in vitro; human, microsomes", "value": "< 8.6", "unit": "mL/min/kg"}, {"measurement": "half-life at 3 μM", "setting": "in vitro; human, microsomes", "value": "> 2.42", "unit": "h"}, {"measurement": "CLint(mic)", "setting": "in vitro; human, microsomes, 3 μM", "value": "< 9.6", "unit": "µL/min/mg"}, {"measurement": "Remaining (T = 60 min)", "setting": "in vitro; human, microsomes, 1 h, 3 μM", "value": 83.4, "unit": "%"}]}, {"molecule": "CC(C)CC(=O)Nc1ccc(-c2nc3ccc(Cl)cc3o2)cc1", "note": "[Cmp. 5, N-(4-(6-chlorobenzo[d]oxazol-2-yl)phenyl)-3-methylbutanamide]", "values": [{"measurement": "effect on the number of fluorescent puncta per cell", "setting": "[1]", "value": "positive effect"}]}, {"molecule": "O=C(O)Cc1ccccc1Nc1c(Cl)cccc1Cl", "note": "[Diclofenac]", "values": [{"measurement": "Remaining (T = 60 min)", "setting": "in vitro; human, microsomes, 1 h, 3 μM", "value": 6.8, "unit": "%"}]}, {"molecule": "CC(=O)Nc1ccc(-c2nc3ccc(Cl)cc3o2)cc1", "note": "[Cmp. 2, N-(4-(6-chlorobenzo[d]oxazol-2-yl)phenyl)acetamide]", "values": [{"measurement": "CMA activity, average number of fluorescent puncta (CMA active lysosomes) per cell, relative to untreated cells (=1)", "setting": "[1]; column 'Time' = 5", "value": 2.72}, {"measurement": "CMA activity, average number of fluorescent puncta (CMA active lysosomes) per cell, relative to untreated cells (=1)", "setting": "[1]; column 'Time' = 10", "value": 2.63}, {"measurement": "CMA activity, average number of fluorescent puncta (CMA active lysosomes) per cell, relative to untreated cells (=1)", "setting": "[1]; column 'Time' = 20", "value": 3.40}, {"measurement": "CMA activity, average number of fluorescent puncta (CMA active lysosomes) per cell, relative to untreated cells (=1)", "setting": "[1]; column 'Time' = 30", "value": 5.12}]}, {"molecule": "C[C@]12CC[C@H]3[C@@H](CCC4=CC(=O)CC[C@@]43C)[C@@H]1CC[C@@H]2O", "note": "[Testosterone]", "values": [{"measurement": "Remaining (T = 60 min)", "setting": "in vitro; human microsomes, 60 min incubation", "value": 4.6, "unit": "%"}]}, {"molecule": "O=C(Nc1ccc(-c2nc3ccc(Cl)cc3o2)cc1)C(F)(F)F", "note": "[Cmp. 3, N-(4-(6-chlorobenzo[d]oxazol-2-yl)phenyl)-2,2,2-trifluoroacetamide]", "values": [{"measurement": "effect on the number of fluorescent puncta per cell", "setting": "[1]", "value": "positive effect"}]}, {"molecule": "O=C(Nc1ccc(-c2nc3cc(Cl)ccc3o2)cc1)C(F)(F)F", "note": "[Cmp. 13, N-(4-(5-chlorobenzo[d]oxazol-2-yl)phenyl)-2,2,2-trifluoroacetamide]", "values": [{"measurement": "effect on the number of fluorescent puncta per cell", "setting": "[1]", "value": "positive effect"}]}, {"molecule": "O=S(=O)(Nc1ccc(-c2nc3ccc(Cl)cc3o2)cc1)C(F)(F)F", "note": "[Cmp. 8, N-(4-(6-chlorobenzo[d]oxazol-2-yl)phenyl)-1,1,1-trifluoromethanesulfonamide]", "values": [{"measurement": "effect on the number of fluorescent puncta per cell", "setting": "[1]", "value": "positive effect"}]}]}
